According to patent publication US20230085307A1, “PYRIDAZINONE COMPOUND AND HERBICIDE” (NISSAN CHEMICAL CORPORATION, priority 2019, published 2023):

Assays:
[1] = tested on: wild oat; assay: Test Example 5: herbicidal effect by foliage application, plastic box (Table 20, symbol I); assay type: in vivo, wild oat (Avena fatua); details: for herbicidal effect on I: wild oat (evaluation grade 0-5): 320 g/ha, foliage application after 14-day growth, evaluated three weeks after application
Outline: (§1)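 Sow seeds spot-wise in sterilized diluvial soil; cover with ~1.5 cm soil. Grow 14 days in greenhouse, 25° C. to 30° C. Spray foliage with emulsion diluted to predetermined amount. Rate effect after 3 weeks.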

[2] = tested on: barnyard grass; assay: Test Example 3: herbicidal effect by foliage application, Wagner pot (Table 18, symbol H); assay type: in vivo, barnyard grass (Echinochloa crus-galli); details: 320 g/ha
Outline: (§2)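 Plants were sown in alluvial soil held under 0.1–0.5 cm standing water and grown 14 days in a greenhouse at 25–30 °C. An emulsifiable formulation, water-diluted to the set dose, was then sprayed onto the foliage, and effects were scored three weeks later using previously defined criteria.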

[3] = tested on: chickweed; assay: Test Example 5: herbicidal effect by foliage application, plastic box (Table 20, symbol P); assay type: in vivo, common chickweed (Stellaria media); details: 320 g/ha, foliage application after 14-day growth, evaluated three weeks after application
Outline: as §1

[4] = tested on: rice flat sedge; assay: Test Example 3: herbicidal effect by foliage application, Wagner pot (Table 18, symbol E); assay type: in vivo, rice flat sedge (Cyperus iria); details: 320 g/ha
Outline: as §2

[5] = tested on: persian speedwell; assay: Test Example 5: herbicidal effect by foliage application, plastic box (Table 20, symbol R); assay type: in vivo, Persian speedwell (Veronica persica); details: for herbicidal effect on R: persian speedwell (evaluation grade 0-5): 320 g/ha, foliage application after 14-day growth, evaluated three weeks after application
Outline: as §1

[6] = tested on: southern crabgrass; assay: Test Example 5: herbicidal effect by foliage application, plastic box (Table 20, symbol F); assay type: in vivo, southern crabgrass (Digitaria ciliaris); details: for herbicidal effect on F: southern crabgrass (evaluation grade 0-5): 320 g/ha, foliage application after 14-day growth, evaluated three weeks after application
Outline: as §1

[7] = tested on: lambsquarters; assay: Test Example 5: herbicidal effect by foliage application, plastic box (Table 20, symbol O); assay type: in vivo, lambsquarters (Chenopodium album); details: for herbicidal effect on O: lambsquarters (evaluation grade 0-5): 320 g/ha, foliage application after 14-day growth, evaluated three weeks after application
Outline: as §1

[8] = tested on: false cleavers; assay: Test Example 5: herbicidal effect by foliage application, plastic box (Table 20, symbol Q); assay type: in vivo, false cleavers (Galium spurium); details: for herbicidal effect on Q: false cleavers (evaluation grade 0-5): 320 g/ha, foliage application after 14-day growth, evaluated three weeks after application
Outline: as §1

[9] = tested on: velvetleaf; assay: Test Example 5: herbicidal effect by foliage application, plastic box (Table 20, symbol M); assay type: in vivo, velvetleaf (Abutilon theophrasti); details: for herbicidal effect on M: velvetleaf (evaluation grade 0-5): 320 g/ha, foliage application after 14-day growth, evaluated three weeks after application
Outline: as §1

[10] = tested on: redroot pigweed; assay: Test Example 5: herbicidal effect by foliage application, plastic box (Table 20, symbol N); assay type: in vivo, redroot pigweed (Amaranthus retroflexus); details: 320 g/ha, foliage application after 14-day growth, evaluated three weeks after application
Outline: as §1

[11] = tested on: Chinese sprangletop; assay: Test Example 3: herbicidal effect by foliage application, Wagner pot (Table 18, symbol D); assay type: in vivo, chinese sprangletop (Leptochloa chinensis); details: 320 g/ha
Outline: as §2

[12] = tested on: blackgrass; assay: Test Example 5: herbicidal effect by foliage application, plastic box (Table 20, symbol J); assay type: in vivo, blackgrass (Alopecurus myosuroides); details: for herbicidal effect on J: blackgrass (evaluation grade 0-5): 320 g/ha, foliage application after 14-day growth, evaluated three weeks after application
Outline: as §1

[13] = tested on: Italian ryegrass; assay: Test Example 5: herbicidal effect by foliage application, plastic box (Table 20, symbol K); assay type: in vivo, Italian ryegrass (Lolium multiflorum); details: for herbicidal effect on K: Italian ryegrass (evaluation grade 0-5): 320 g/ha, foliage application after 14-day growth, evaluated three weeks after application
Outline: as §1

[14] = tested on: windgrass; assay: Test Example 5: herbicidal effect by foliage application, plastic box (Table 20, symbol L); assay type: in vivo, windgrass (Apera spica-venti); details: for herbicidal effect on L: windgrass (evaluation grade 0-5): 320 g/ha, foliage application after 14-day growth, evaluated three weeks after application
Outline: as §1

[15] = tested on: barnyard grass; assay: Test Example 5: herbicidal effect by foliage application, plastic box (Table 20, symbol H); assay type: in vivo, barnyard grass (Echinochloa crus-galli); details: for herbicidal effect on H: barnyard grass (evaluation grade 0-5): 320 g/ha, foliage application after 14-day growth, evaluated three weeks after application
Outline: as §1

[16] = tested on: green foxtail; assay: Test Example 5: herbicidal effect by foliage application, plastic box (Table 20, symbol G); assay type: in vivo, green foxtail (Setaria viridis); details: for herbicidal effect on G: green foxtail (evaluation grade 0-5): 320 g/ha, foliage application after 14-day growth, evaluated three weeks after application
Outline: as §1

[17] = tested on: windgrass; assay: Test Example 4: herbicidal effect by soil treatment (Table 19, symbol L); assay type: in vivo, windgrass (Apera spica-venti); details: amount of applied herbicide 194 g/ha
Outline: (§3)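 Applied as a water-diluted emulsion, the compound was sprayed onto soil covering newly sown seeds. Evaluation came three weeks after application, in a greenhouse held at 25° C. to 30° C.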

[18] = tested on: blackgrass; assay: Test Example 4: herbicidal effect by soil treatment (Table 19, symbol J); assay type: in vivo, blackgrass (Alopecurus myosuroides); details: amount of applied herbicide 194 g/ha
Outline: as §3

[19] = tested on: wild oat; assay: Test Example 4: herbicidal effect by soil treatment (Table 19, symbol I); assay type: in vivo, wild oat (Avena fatua); details: amount of applied herbicide 194 g/ha
Outline: as §3

[20] = tested on: redroot pigweed; assay: Test Example 4: herbicidal effect by soil treatment (Table 19, symbol N); assay type: in vivo, redroot pigweed (Amaranthus retroflexus); details: amount of applied herbicide 194 g/ha
Outline: as §3

[21] = tested on: barnyard grass; assay: Test Example 4: herbicidal effect by soil treatment (Table 19, symbol H); assay type: in vivo, barnyard grass (Echinochloa crus-galli); details: amount of applied herbicide 194 g/ha
Outline: as §3

[22] = tested on: chickweed; assay: Test Example 4: herbicidal effect by soil treatment (Table 19, symbol P); assay type: in vivo, common chickweed (Stellaria media); details: amount of applied herbicide 194 g/ha
Outline: as §3

[23] = tested on: southern crabgrass; assay: Test Example 4: herbicidal effect by soil treatment (Table 19, symbol F); assay type: in vivo, southern crabgrass (Digitaria ciliaris); details: amount of applied herbicide 194 g/ha
Outline: as §3

[24] = tested on: velvetleaf; assay: Test Example 4: herbicidal effect by soil treatment (Table 19, symbol M); assay type: in vivo, velvetleaf (Abutilon theophrasti); details: amount of applied herbicide 194 g/ha
Outline: as §3

[25] = tested on: lambsquarters; assay: Test Example 4: herbicidal effect by soil treatment (Table 19, symbol O); assay type: in vivo, lambsquarters (Chenopodium album); details: amount of applied herbicide 194 g/ha
Outline: as §3

[26] = tested on: persian speedwell; assay: Test Example 4: herbicidal effect by soil treatment (Table 19, symbol R); assay type: in vivo, Persian speedwell (Veronica persica); details: amount of applied herbicide 194 g/ha
Outline: as §3

[27] = tested on: green foxtail; assay: Test Example 4: herbicidal effect by soil treatment (Table 19, symbol G); assay type: in vivo, green foxtail (Setaria viridis); details: amount of applied herbicide 194 g/ha
Outline: as §3

[28] = tested on: Italian ryegrass; assay: Test Example 4: herbicidal effect by soil treatment (Table 19, symbol K); assay type: in vivo, Italian ryegrass (Lolium multiflorum); details: amount of applied herbicide 194 g/ha
Outline: as §3

[29] = foliage application, 194 g/ha, three weeks after application

## CCCC(=O)Oc1c(C)nn(C)c(=O)c1-c1c(-c2ccc(C(F)(F)F)cc2)sc2cc(Cl)ccc12 [3-146]
[1]
  herbicidal effect on I: wild oat (evaluation grade 0-5): 0 (Herbicidal rate of 5% or less (almost no effect))
[2]
  herbicidal effect on barnyard grass (H): 3 (Herbicidal rate of 40% or more and less than 70%)
[3]
  herbicidal effect on P: chickweed (evaluation grade 0-5): 5 (Herbicidal rate of 90% or more (almost completely withered))
[4]
  herbicidal effect on rice flat sedge (E): 3 (Herbicidal rate of 40% or more and less than 70%)
[5]
  herbicidal effect on R: persian speedwell (evaluation grade 0-5): 4 (Herbicidal rate of 70% or more and less than 90%)
[6]
  herbicidal effect on F: southern crabgrass (evaluation grade 0-5): 1 (Herbicidal rate of 5% or more and less than 20%)
[7]
  herbicidal effect on O: lambsquarters (evaluation grade 0-5): 3 (Herbicidal rate of 40% or more and less than 70%)
[8]
  herbicidal effect on Q: false cleavers (evaluation grade 0-5): 1 (Herbicidal rate of 5% or more and less than 20%)
[9]
  herbicidal effect on M: velvetleaf (evaluation grade 0-5): 0 (Herbicidal rate of 5% or less (almost no effect))
[10]
  herbicidal effect on N: redroot pigweed (evaluation grade 0-5): 3 (Herbicidal rate of 40% or more and less than 70%)
[11]
  herbicidal effect on Chinese sprangletop (D): 3 (Herbicidal rate of 40% or more and less than 70%)
[12]
  herbicidal effect on J: blackgrass (evaluation grade 0-5): 0 (Herbicidal rate of 5% or less (almost no effect))
[13]
  herbicidal effect on K: Italian ryegrass (evaluation grade 0-5): 0 (Herbicidal rate of 5% or less (almost no effect))
[14]
  herbicidal effect on L: windgrass (evaluation grade 0-5): 0 (Herbicidal rate of 5% or less (almost no effect))
[15]
  herbicidal effect on H: barnyard grass (evaluation grade 0-5): 0 (Herbicidal rate of 5% or less (almost no effect))
[16]
  herbicidal effect on G: green foxtail (evaluation grade 0-5): 2 (Herbicidal rate of 20% or more and less than 40%)

## COc1ccccc1-c1sc2c(OC)cccc2c1-c1c(O)c(C)nn(C)c1=O [4-039]
[1]
  herbicidal effect on I: wild oat (evaluation grade 0-5): 3 (Herbicidal rate of 40% or more and less than 70%)
[2]
  herbicidal effect on barnyard grass (H): 4 (Herbicidal rate of 70% or more and less than 90%)
[3]
  herbicidal effect on P: chickweed (evaluation grade 0-5): 2 (Herbicidal rate of 20% or more and less than 40%)
[4]
  herbicidal effect on rice flat sedge (E): 3 (Herbicidal rate of 40% or more and less than 70%)
[5]
  herbicidal effect on R: persian speedwell (evaluation grade 0-5): 3 (Herbicidal rate of 40% or more and less than 70%)
[6]
  herbicidal effect on F: southern crabgrass (evaluation grade 0-5): 3 (Herbicidal rate of 40% or more and less than 70%)
[7]
  herbicidal effect on O: lambsquarters (evaluation grade 0-5): 2 (Herbicidal rate of 20% or more and less than 40%)
[8]
  herbicidal effect on Q: false cleavers (evaluation grade 0-5): 3 (Herbicidal rate of 40% or more and less than 70%)
[9]
  herbicidal effect on M: velvetleaf (evaluation grade 0-5): 4 (Herbicidal rate of 70% or more and less than 90%)
[10]
  herbicidal effect on N: redroot pigweed (evaluation grade 0-5): 3 (Herbicidal rate of 40% or more and less than 70%)
[11]
  herbicidal effect on Chinese sprangletop (D): 3 (Herbicidal rate of 40% or more and less than 70%)
[12]
  herbicidal effect on J: blackgrass (evaluation grade 0-5): 2 (Herbicidal rate of 20% or more and less than 40%)
[13]
  herbicidal effect on K: Italian ryegrass (evaluation grade 0-5): 0 (Herbicidal rate of 5% or less (almost no effect))
[14]
  herbicidal effect on L: windgrass (evaluation grade 0-5): 3 (Herbicidal rate of 40% or more and less than 70%)
[15]
  herbicidal effect on H: barnyard grass (evaluation grade 0-5): 3 (Herbicidal rate of 40% or more and less than 70%)
[16]
  herbicidal effect on G: green foxtail (evaluation grade 0-5): 4 (Herbicidal rate of 70% or more and less than 90%)

## Cc1ccc2oc(-c3ccc(F)cc3)c(-c3c(O)c(C)nn(C)c3=O)c2c1 [9-004]
[1]; [29]
  herbicidal effect on wild oat (I): 0 (Herbicidal rate of 5% or less (almost no effect))
[17]
  L: windgrass, herbicidal effect grade: 0 (Herbicidal rate of 5% or less (almost no effect))
[18]
  J: blackgrass, herbicidal effect grade: 0 (Herbicidal rate of 5% or less (almost no effect))
[19]
  I: wild oat, herbicidal effect grade: 0 (Herbicidal rate of 5% or less (almost no effect))
[20]
  N: redroot pigweed, herbicidal effect grade: 3 (Herbicidal rate of 40% or more and less than 70%)
[5]; [29]
  herbicidal effect on persian speedwell (R): 5 (Herbicidal rate of 90% or more (almost completely withered))
[21]
  H: barnyard grass, herbicidal effect grade: 3 (Herbicidal rate of 40% or more and less than 70%)
[6]; [29]
  herbicidal effect on southern crabgrass (F): 2 (Herbicidal rate of 20% or more and less than 40%)
[7]; [29]
  herbicidal effect on lambsquarters (O): 3 (Herbicidal rate of 40% or more and less than 70%)
[22]
  P: chickweed, herbicidal effect grade: 3 (Herbicidal rate of 40% or more and less than 70%)
[8]; [29]
  herbicidal effect on false cleavers (Q): 4 (Herbicidal rate of 70% or more and less than 90%)
[9]; [29]
  herbicidal effect on velvetleaf (M): 3 (Herbicidal rate of 40% or more and less than 70%)
[23]
  F: southern crabgrass, herbicidal effect grade: 2 (Herbicidal rate of 20% or more and less than 40%)
[24]
  M: velvetleaf, herbicidal effect grade: 0 (Herbicidal rate of 5% or less (almost no effect))
[25]
  O: lambsquarters, herbicidal effect grade: 5 (Herbicidal rate of 90% or more (almost completely withered))
[12]; [29]
  herbicidal effect on blackgrass (J): 3 (Herbicidal rate of 40% or more and less than 70%)
[13]; [29]
  herbicidal effect on Italian ryegrass (K): 5 (Herbicidal rate of 90% or more (almost completely withered))
[14]; [29]
  herbicidal effect on windgrass (L): 0 (Herbicidal rate of 5% or less (almost no effect))
[26]
  R: persian speedwell, herbicidal effect grade: 1 (Herbicidal rate of 5% or more and less than 20%)
[27]
  G: green foxtail, herbicidal effect grade: 2 (Herbicidal rate of 20% or more and less than 40%)
[28]
  K: Italian ryegrass, herbicidal effect grade: 4 (Herbicidal rate of 70% or more and less than 90%)
[15]; [29]
  herbicidal effect on barnyard grass (H): 3 (Herbicidal rate of 40% or more and less than 70%)
[16]; [29]
  herbicidal effect on green foxtail (G): 3 (Herbicidal rate of 40% or more and less than 70%)
